Eight compounds from patent publication EP4653444A1, “FUSED TRICYCLIC COMPOUND AS KINASE INHIBITOR” (Hangzhou Innogate Pharma Co., Ltd., priority 2023, dated 2024) can be followed below.

The target in data set [1] is T1, ULK2 kinase (Homo sapiens, UniProt Q8IYT8).
T1 sequence (Q8IYT8 1-1036): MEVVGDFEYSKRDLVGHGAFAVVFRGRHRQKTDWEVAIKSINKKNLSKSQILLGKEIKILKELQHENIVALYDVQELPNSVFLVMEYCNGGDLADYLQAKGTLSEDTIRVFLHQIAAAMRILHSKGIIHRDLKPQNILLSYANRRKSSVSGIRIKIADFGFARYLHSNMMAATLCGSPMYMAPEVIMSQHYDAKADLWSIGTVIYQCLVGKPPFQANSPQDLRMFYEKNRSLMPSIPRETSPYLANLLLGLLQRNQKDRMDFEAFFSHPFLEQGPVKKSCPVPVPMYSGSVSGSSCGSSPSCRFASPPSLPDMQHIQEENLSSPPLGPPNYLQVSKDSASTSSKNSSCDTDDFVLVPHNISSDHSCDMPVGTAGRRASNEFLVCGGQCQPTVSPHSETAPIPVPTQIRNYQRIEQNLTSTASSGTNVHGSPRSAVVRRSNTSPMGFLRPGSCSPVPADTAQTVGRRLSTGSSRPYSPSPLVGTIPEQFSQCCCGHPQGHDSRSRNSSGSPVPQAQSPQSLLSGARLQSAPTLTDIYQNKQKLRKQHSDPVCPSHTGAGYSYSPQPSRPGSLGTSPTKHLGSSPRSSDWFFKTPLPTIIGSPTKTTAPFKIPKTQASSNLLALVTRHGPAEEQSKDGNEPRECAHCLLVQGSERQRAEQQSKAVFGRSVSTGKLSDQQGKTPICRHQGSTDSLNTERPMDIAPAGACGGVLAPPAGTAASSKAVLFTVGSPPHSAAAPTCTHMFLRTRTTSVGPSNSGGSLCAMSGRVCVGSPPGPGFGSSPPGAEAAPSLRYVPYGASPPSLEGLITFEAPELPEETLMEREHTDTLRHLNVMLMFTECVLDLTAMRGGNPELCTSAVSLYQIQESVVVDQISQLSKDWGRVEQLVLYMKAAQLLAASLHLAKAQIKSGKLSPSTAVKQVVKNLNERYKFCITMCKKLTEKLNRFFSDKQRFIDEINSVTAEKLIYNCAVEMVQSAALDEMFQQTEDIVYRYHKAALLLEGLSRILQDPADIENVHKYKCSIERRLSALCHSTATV
As to the kind of experiment: ULK kinase activity inhibition assay (ADP-Glo). In kind it is biochemical. How it is done: (§1) The ADP-Glo method was used to evaluate the inhibitory activity of the compounds against ULK1 and ULK2 kinases. Prepare 1× kinase reaction buffer (final working concentrations: HEPES 50 mM, MgCl2 10 mM, Brij35 0.01%, EGTA 1 mM, DTT 2 mM). Prepare 2× kinase and […] substrate solutions: ULK1 kinase at 0.5 nM; substrate mix containing ATP at 100 µM and MBP at 0.1 mg/mL. ULK2 kinase at 0.15 nM; substrate mix containing ATP at 6 µM and MBP at 0.1 mg/mL. Compounds were serially diluted in DMSO and shaken on a shaker for 20 minutes. Prepare 2× kinase using 1× kinase reaction buffer. Transfer 20 nL of compound into a 384-well plate. Add 2 µL of kinase to each well of the reaction plate. Seal the plate with sealing film, centrifuge at 1000 rpm for 60 seconds, and incubate at 25°C for 10 minutes. Prepare 2× ATP & MBP mixture using 1× kinase reaction buffer and add 2 µL to each well. Seal the plate, centrifuge at 1000 rpm for 60 seconds, and incubate at 25°C for 60 minutes. Add 4 µL ADP-Glo reagent to the 384-well plate, centrifuge at 1000 rpm for 1 minute, and incubate at 25°C for 40 minutes. Then, add 8 µL Detection Reagent, centrifuge at 1000 rpm for 1 minute, and incubate at 25°C for 40 minutes. Read the RLU (Relative Luminescence Unit) signal using a BMG plate reader to indicate kinase activity. Inhibition rate was calculated as: % Inhibition = 100% - [(Compound - Positive Control)/(Negative Control - Positive Control)] × 100%. IC50 values (half-maximal inhibitory concentration) were calculated by nonlinear regression using GraphPad Prism 7.0. Y = Bottom + (Top - Bottom)/(1 + 10^((LogIC50 - X) × Hill Slope)), where X is the log of compound concentration and Y is the % inhibition.
For orientation: In ADP-Glo the light output rises with the ADP produced.

Data set [2] has as its target T2, ULK1 kinase (Homo sapiens, UniProt O75385).
T2 sequence (O75385 1-1050): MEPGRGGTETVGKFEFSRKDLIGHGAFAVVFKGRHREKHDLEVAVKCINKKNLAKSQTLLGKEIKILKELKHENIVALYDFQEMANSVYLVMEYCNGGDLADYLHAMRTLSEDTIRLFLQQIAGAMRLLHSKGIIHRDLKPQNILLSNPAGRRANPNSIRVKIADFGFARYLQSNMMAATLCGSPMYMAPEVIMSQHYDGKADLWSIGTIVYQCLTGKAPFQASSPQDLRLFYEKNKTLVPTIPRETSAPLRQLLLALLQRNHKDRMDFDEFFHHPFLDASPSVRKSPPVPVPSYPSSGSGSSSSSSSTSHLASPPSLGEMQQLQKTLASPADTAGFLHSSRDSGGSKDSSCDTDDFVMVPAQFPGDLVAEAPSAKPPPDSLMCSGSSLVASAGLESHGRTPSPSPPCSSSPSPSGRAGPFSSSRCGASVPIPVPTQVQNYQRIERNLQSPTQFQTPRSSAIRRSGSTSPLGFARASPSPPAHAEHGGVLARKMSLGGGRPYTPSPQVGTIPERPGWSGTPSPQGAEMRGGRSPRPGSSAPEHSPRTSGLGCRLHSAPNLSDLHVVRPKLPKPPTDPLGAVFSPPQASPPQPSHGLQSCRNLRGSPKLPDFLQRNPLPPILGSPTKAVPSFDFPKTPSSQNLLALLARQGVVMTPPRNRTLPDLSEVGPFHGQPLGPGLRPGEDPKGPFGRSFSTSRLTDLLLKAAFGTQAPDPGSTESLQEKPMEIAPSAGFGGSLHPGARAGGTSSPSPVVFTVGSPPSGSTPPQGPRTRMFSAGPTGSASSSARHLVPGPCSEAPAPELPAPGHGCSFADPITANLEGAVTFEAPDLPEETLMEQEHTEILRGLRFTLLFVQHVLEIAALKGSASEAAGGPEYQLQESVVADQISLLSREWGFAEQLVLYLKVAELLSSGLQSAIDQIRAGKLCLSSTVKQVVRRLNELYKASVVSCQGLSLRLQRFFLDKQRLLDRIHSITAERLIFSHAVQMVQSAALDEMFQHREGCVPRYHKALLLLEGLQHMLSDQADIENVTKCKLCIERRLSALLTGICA
As to the kind of experiment: ULK kinase activity inhibition assay (ADP-Glo). The data set is classed as biochemical. As for the experimental part: as §1

Data set [3] can be described thus: Pharmacokinetic study in rats. The conditions noted are these: rat, plasma, po, 3 mg/kg.
The mark [4] stands for this setting: ADP-Glo, ATP 6 µM, read-out: ULK2 (IC50).
[5] abbreviates: ADP-Glo, ATP 100 µM, read-out: ULK1 (IC50).

Like-named read-outs stand apart in the source and are kept apart here.

By IC50 is commonly meant the point on the concentration scale where inhibition reaches its midpoint. The term AUC(0-t) denotes exposure summed from dosing to a finite time, without extrapolation to infinity. A lower AUC(0-t) goes with low exposure. In general, Cmax refers to the peak of the concentration-time curve. The Tmax is the time at which the peak concentration occurs. For orientation: half-life means the time in which the quantity being followed falls by half. A lower half-life goes with fast loss. For the compound `CCc1cc2c(cc1Nc1ncc(C(F)(F)F)c(NCCCN3CCOCCC3=O)n1)OC[C@H]1CN(C)CCN21` [Compound A1R], the IC50 in data set [1] (setting [4]) is under 1 nM. In data set [2] (setting [5]), the IC50 is under 3 nM. Also, in data set [3], the AUC(0-t) at 24 h was determined as 326 ng·h/mL, the Cmax amounted to 74.2 ng/mL, the time to peak (Tmax) turned out to be 1.2 h and the half-life is 1.5 h.

As to `CCc1cc2c(cc1Nc1ncc(C(F)(F)F)c(NCCCN3CCOCCC3=O)n1)OC[C@H]1CN(C3CCN(C)CC3)CCN21` [Compound A2R], the IC50 in data set [1] is under 5 nM. In data set [2], the IC50 is under 3 nM. In data set [3], the area under the curve AUC(0-t) at 24 h amounted to 1940 ng·h/mL, the concentration peaked (Cmax) at 149 ng/mL, the time of peak concentration (Tmax) was found to be 8 h and the half-life was 8.8 h.

In data set [1], `CCc1cc2c(cc1Nc1ncc(C(F)(F)F)c(NCCCN3CCOCCC3=O)n1)OC[C@H]1CN(C3CCOCC3)CCN21` [Compound A3R] displayed an IC50 of under 1 nM. For the same compound, the IC50 in data set [2] is under 3 nM. Further, in data set [3], the AUC(0-t) at 24 h worked out at 1040 ng·h/mL, the highest level (Cmax) was 223 ng/mL, the Tmax is 1.2 h and the half-life was 1.4 h.

As to `CCc1cc2c(cc1Nc1ncc(C(F)(F)F)c(NCCCN3CCOCCC3=O)n1)OC[C@H]1CNCCN21` [Compound A4R], the IC50 in data set [1] (setting [4]) is under 1 nM. In data set [2] (setting [5]), the IC50 is under 1 nM. In data set [3], the AUC(0-t) at 24 h turned out to be 880 ng·h/mL, the Cmax amounted to 217 ng/mL, the Tmax is 1.2 h and the half-life is 2.1 h.

For the compound `CCc1cc2c(cc1Nc1ncc(C(F)(F)F)c(NCCCN3CCCCC3=O)n1)OC[C@H]1CNCCN21` [Compound A5R], the IC50 in data set [1] (setting [4]) and in data set [2] (setting [5]) was under 1 nM throughout.

For `CCc1cc2c(cc1Nc1ncc(C(F)(F)F)c(NCCCN3CCCCC3=O)n1)OC[C@H]1CN(C3CCN(C)CC3)CCN21` [Compound A6R], in data set [1], the half-maximal inhibitory concentration (IC50) is under 5 nM. The compound also displayed an IC50 in data set [2] of under 3 nM. Besides, in data set [3], the area under the curve AUC(0-t) at 24 h came out at 1080 ng·h/mL, the Cmax is 77.3 ng/mL, the Tmax was 6.7 h and the half-life was 8.3 h.

With `CCc1cc2c(cc1Nc1ncc(C(F)(F)F)c(NCCCN3CCCCC3=O)n1)OC[C@H]1CN(C3CCOCC3)CCN21` [Compound A7R], the IC50 in data set [1] is under 1 nM; in data set [2], under 3 nM.

On to `CCc1cc2c(cc1Nc1ncc(C(F)(F)F)c(NCCCN3CCCCC3=O)n1)OC[C@H]1CN(C)CCN21` [Compound A8R], for which, in data set [1] (setting [4]), the IC50 was under 1 nM. Also, the IC50 in data set [2] (setting [5]) was under 1 nM. Further, in data set [3], the AUC(0-t) at 24 h worked out at 685 ng·h/mL, the Cmax is 222 ng/mL, the time of peak concentration (Tmax) worked out at 0.8 h and the half-life is 1 h.
